This is an account of results in patent US9133262B2, “Somatostatin antagonists” (Ipsen Pharma S.A.S., priority 1996, dated 2015).

Positions of bridges follow the written chain, without caps; N, C: chain ends. Non-standard residues stand in square brackets, D forms with d. Residues, ends and D or L forms follow the SMILES beside them. Phe(F5) = N[C@@H](Cc1c(F)c(F)c(F)c(F)c1F)C(=O)O; Phe(4-Br) = N[C@@H](Cc1ccc(Br)cc1)C(=O)O; Phe(4-Cl) = N[C@@H](Cc1ccc(Cl)cc1)C(=O)O; dPhe(4-Cl) = N[C@H](Cc1ccc(Cl)cc1)C(=O)O; Dip = N[C@H](C(=O)O)C(c1ccccc1)c1ccccc1; Phe(4-F) = N[C@@H](Cc1ccc(F)cc1)C(=O)O; 2Nal = N[C@@H](Cc1ccc2ccccc2c1)C(=O)O; d2Nal = N[C@H](Cc1ccc2ccccc2c1)C(=O)O; 3Pal = N[C@@H](Cc1cccnc1)C(=O)O; Tle = CC(C)(C)[C@H](N)C(=O)O

One test relates to rat pituitary cells. The class given is cell-based. The settings on record: 3 h. The method, boiled down:
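Dispersed adult male rat pituitary cells, cultured 4-5 days, were exposed 3 h at 37° C in medium 199 with 1% BSA to 6 antagonist doses plus 1 nM SRIF and 1 nM GRF(1-29)NH2, in triplicate. GH in medium measured by radioimmunoassay; IC50 versus 1 nM SRIF fitted, maximum constrained to GRF-stimulated control.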
Regarding `CC(C)[C@@H]1NC(=O)[C@H](CCCCN)NC(=O)[C@@H](Cc2c[nH]c3ccccc23)NC(=O)[C@H](Cc2cccnc2)NC(=O)[C@H](NC(=O)[C@@H](N)Cc2ccc(Br)cc2)CSSC[C@@H](C(=O)N[C@@H](Cc2ccc(Br)cc2)C(N)=O)NC1=O` [Analog No. 52, H2-Bpa-D-Cys-Pal-D-Trp-Lys-Val-Cys-Bpa-NH2] (H-[Phe(4-Br)][dC][3Pal][dW]KVC[Phe(4-Br)]-NH2; disulfide 2-7), inhibition was half-maximal at 0.0026 µM (IC50).

Turning to `C[C@@H](O)[C@H](NC(=O)[C@@H]1CSSC[C@@H](NC(=O)[C@@H](N)Cc2ccccc2)C(=O)N[C@@H](Cc2cccnc2)C(=O)N[C@H](Cc2c[nH]c3ccccc23)C(=O)N[C@@H](CCCCN)C(=O)N[C@@H]([C@@H](C)O)C(=O)N1)C(N)=O` [Analog No. 6, H2-Phe-D-Cys-Pal-D-Trp-Lys-Thr-Cys-Thr-NH2] (H-F[dC][3Pal][dW]KTCT-NH2; disulfide 2-7), the IC50 was 0.9 µM.

`CC(C)[C@@H]1NC(=O)[C@H](CCCCN)NC(=O)[C@@H](Cc2c[nH]c3ccccc23)NC(=O)[C@H](Cc2c[nH]cn2)NC(=O)[C@H](NC(=O)[C@@H](N)Cc2ccc3ccccc3c2)CSSC[C@@H](C(=O)N[C@@H](Cc2ccc3ccccc3c2)C(N)=O)NC1=O` [Analog No. 22, H2-β-Nal-D-Cys-His-D-Trp-Lys-Val-Cys-β-Nal-NH2] (H-[2Nal][dC]H[dW]KVC[2Nal]-NH2; disulfide 2-7) yielded an IC50 of 0.066 µM. Still for that read-out and setting: for `CC(C)[C@@H]1NC(=O)[C@H](CCCCN)NC(=O)[C@@H](Cc2c[nH]c3ccccc23)NC(=O)[C@H](Cc2c[nH]cn2)NC(=O)[C@H](NC(=O)[C@@H](N)Cc2ccc(F)cc2)CSSC[C@@H](C(=O)N[C@@H](Cc2ccc(F)cc2)C(N)=O)NC1=O` [Analog No. 38, H2-p-F-Phe-D-Cys-His-D-Trp-Lys-Val-Cys-p-F-Phe-NH2] (H-[Phe(4-F)][dC]H[dW]KVC[Phe(4-F)]-NH2; disulfide 2-7) the value was 0.11 µM; for `NCCCC[C@@H]1NC(=O)[C@@H](Cc2c[nH]c3ccccc23)NC(=O)[C@H](Cc2cccnc2)NC(=O)[C@H](NC(=O)[C@@H](N)Cc2ccc3ccccc3c2)CSSC[C@@H](C(=O)N[C@@H](Cc2ccc3ccccc3c2)C(N)=O)NC(=O)CNC1=O` [Analog No. 33, H2-β-Nal-D-Cys-Pal-D-Trp-Lys-Gly-Cys-β-Nal-NH2] (H-[2Nal][dC][3Pal][dW]KGC[2Nal]-NH2; disulfide 2-7), 1.5 µM; for `CC(C)[C@@H]1NC(=O)[C@H](CCCCN)NC(=O)[C@@H](Cc2c[nH]c3ccccc23)NC(=O)[C@H](Cc2cccnc2)NC(=O)[C@H](NC(=O)[C@@H](N)Cc2ccc(Cl)cc2)CSSC[C@@H](C(=O)N[C@@H](Cc2ccc(Cl)cc2)C(N)=O)NC1=O` [Analog No. 43, H2-Cpa-D-Cys-Pal-D-Trp-Lys-Val-Cys-Cpa-NH2] (H-[Phe(4-Cl)][dC][3Pal][dW]KVC[Phe(4-Cl)]-NH2; disulfide 2-7), 0.00082 µM.

In the case of `CC(C)(C)[C@@H]1NC(=O)[C@H](CCCCN)NC(=O)[C@@H](Cc2c[nH]c3ccccc23)NC(=O)[C@H](Cc2cccnc2)NC(=O)[C@H](NC(=O)[C@@H](N)Cc2c[nH]c3ccccc23)CSSC[C@@H](C(=O)N[C@@H](Cc2ccc3ccccc3c2)C(N)=O)NC1=O` [Analog No. 54, H2-Trp-D-Cys-Pal-D-Trp-Lys-Tle-Cys-β-Nal-NH2] (H-W[dC][3Pal][dW]K[Tle]C[2Nal]-NH2; disulfide 2-7), the concentration for half-maximal inhibition (IC50) was 0.029 µM.

Molecule `CC(C)(C)[C@@H]1NC(=O)[C@H](CCCCN)NC(=O)[C@@H](Cc2c[nH]c3ccccc23)NC(=O)[C@H](Cc2cccnc2)NC(=O)[C@H](NC(=O)[C@@H](N)Cc2ccc3ccccc3c2)CSSC[C@@H](C(=O)N[C@@H](Cc2ccc3ccccc3c2)C(N)=O)NC1=O` [Analog No. 29, H2-β-Nal-D-Cys-Pal-D-Trp-Lys-Tle-Cys-β-Nal-NH2] (H-[2Nal][dC][3Pal][dW]K[Tle]C[2Nal]-NH2; disulfide 2-7) gave a half-maximal inhibitory concentration (IC50) of 0.0084 µM. On the same count and under the same terms, with `CC(C)(C)[C@@H]1NC(=O)[C@H](CCCCN)NC(=O)[C@@H](Cc2c[nH]c3ccccc23)NC(=O)[C@H](Cc2cccnc2)NC(=O)[C@H](NC(=O)[C@H](N)Cc2ccc(Cl)cc2)CSSC[C@@H](C(=O)N[C@@H](Cc2ccc(Cl)cc2)C(N)=O)NC1=O` [Analog No. 7, H2-D-p-Cl-Phe-D-Cys-Pal-D-Trp-Lys-Tle-Cys-p-Cl-Phe-NH2] (H-[dPhe(4-Cl)][dC][3Pal][dW]K[Tle]C[Phe(4-Cl)]-NH2; disulfide 2-7) the figure was 0.071 µM. With `CC(C)[C@@H]1NC(=O)[C@H](CCCCN)NC(=O)[C@@H](Cc2c[nH]c3ccccc23)NC(=O)[C@H](Cc2cccnc2)NC(=O)[C@H](NC(=O)[C@@H](N)C(c2ccccc2)c2ccccc2)CSSC[C@@H](C(=O)N[C@H](C(N)=O)C(c2ccccc2)c2ccccc2)NC1=O` [Analog No. 10, H2-Dip-D-Cys-Pal-D-Trp-Lys-Val-Cys-Dip-NH2] (H-[Dip][dC][3Pal][dW]KVC[Dip]-NH2; disulfide 2-7), the half-inhibitory concentration (IC50) amounted to 0.62 µM. Same read-out and setting: with `CC(C)[C@@H]1NC(=O)[C@H](CCCCN)NC(=O)[C@@H](Cc2c[nH]c3ccccc23)NC(=O)[C@H](Cc2c[nH]cn2)NC(=O)[C@H](NC(=O)[C@@H](N)Cc2c(F)c(F)c(F)c(F)c2F)CSSC[C@@H](C(=O)N[C@@H](Cc2c(F)c(F)c(F)c(F)c2F)C(N)=O)NC1=O` [Analog No. 11, H2—F5-Phe-D-Cys-His-D-Trp-Lys-Val-Cys-F5-Phe-NH2] (H-[Phe(F5)][dC]H[dW]KVC[Phe(F5)]-NH2; disulfide 2-7) the figure was 0.72 µM.

The test is the same for the next values; noted with them: cultured rat pituitary cells; 1 nM SRIF and 1 nM GRF(1-29)NH2; 3 hrs at 37° C.; growth hormone by radioimmunoassay; read-out: IC50 of antagonist versus 1 nM SRIF (growth hormone release).
In the case of `CC(C)[C@@H]1NC(=O)[C@H](CCCCN)NC(=O)[C@@H](Cc2c[nH]c3ccccc23)NC(=O)[C@H](Cc2ccc(O)cc2)NC(=O)[C@H](NC(=O)[C@H](N)Cc2ccc3ccccc3c2)CSSC[C@@H](C(=O)N[C@H](Cc2ccc3ccccc3c2)C(N)=O)NC1=O` [Analog No. 26, H2-D-β-Nal-D-Cys-Tyr-D-Trp-Lys-Val-Cys-D-β-Nal-NH2] (H-[d2Nal][dC]Y[dW]KVC[d2Nal]-NH2; disulfide 2-7), the half-maximal inhibitory concentration (IC50) came out at 0.38 µM.
